Results as given in patent US20120071475A1, “UREA DERIVATIVES HAVING PI3K-INHIBITING ACTIVITY” (SHIONOGI & CO., LTD., priority 2009, published 2012).
Values after ≈ are worked out from the molar mass of the structure shown. Read-outs that look alike come from different tables or passages of the source.

What was measured:
[1] = tested on: CYP1A2, CYP2C9, CYP2C19, CYP2D6 and CYP3A4 (one value for the five species); assay: CYP inhibition test, five CYP species together (5CYPs_IC50; pooled human liver microsome); type: in vitro ADME; settings: human, microsomes
Excerpt: O-de-ethylation of 7-ethoxyresorufin (CYP1A2), methyl-hydroxylation of tolbutamide (CYP2C9), 4′-hydroxylation of mephenyloin (CYP2C19), O-demethylation of dextromethorphan (CYP2D6), and hydroxylation of terfenadine (CYP3A4), which are typical substrate for metabolic reactions of human main CYP5 molecular species (CYP1A2, 2C9, 2C19, 2D6, and 3A4), were adopted as indexes.
The reaction conditions are as follows: substrate: 0.5 μmol/L of ethoxyresorufin (CYP1A2), 100 μmol/L of tolbutamide (CYP2C9), 50 μmol/L of S-mephenyloin (CYP2C19), 5 μmol/L of dextromethorphan (CYP2D6), and 1 μmol/L of terfenadine (CYP3A4); reaction time; 15 minutes; reaction temperature: 37° C.; enzyme: pooled human liver microsome 0.2 mg protein/mL; test drug concentration: 1, 5, 10, and 20 μmol/L (4 points).
In a 96-well plate, as a reaction solution, five kinds of substrates, a human liver microsome, and a test drug were added to 50 mmol/L Hepes buffer solution in the aforementioned ratio. A coenzyme NADPH was added to start a metabolic reaction, which is an index. After reacting at 37° C. for 15 minutes, a solution of methanol/acetonitrile (1/1 (v/v)) was added to quench the reaction. After centrifugation at 3000 rpm for 15 minutes, resorufin (CYP1A2 metabolite) in the supernatant was quantitated with a fluorescence multilabel counter, and hydroxylated tolbutamide (CYP2C9 metabolite), 4′-hydroxylated mephenyloin (CYP2C19 metabolite), […], terfenadine in alcohol form (CYP3A4 metabolite) were quantitated with LC/MS/MS.
The case wherein only DMSO (a solvent which dissolved a drug) was added to a reaction system was defined as a control (100%). When a test drug solution was added, the remaining activity (%) at each concentration was calculated, and then IC50 was calculated with a concentration and an inhibition ratio by an inverse estimation using a logistic model.

[2] = biological target: T1, CYP3A4 (Homo sapiens, UniProt P08684); assay: CYP3A4 fluorescence MBI test; type: in vitro ADME; settings: difference in IC50 with 0 or 30 minutes pre-reaction; CYP3A4 expressed in E. coli, substrate 7-BFC
T1 construct: host or cells: E. coli
Summary of the method: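 E. coli-expressed CYP3A4 debenzylating 5.6 μmol/L 7-BFC to fluorescent 7-HFC (Ex 420/Em 535 nm) in K-Pi pH 7.4 at 25° C, 15 min reaction. NADPH pre-incubation of 0 or 30 min, with 10-fold dilution before reaction. IC50 from 0.625–20 μmol/L (6 points); (+) for an IC50 shift ≥5 μmol/L, (−) for ≤3 μmol/L.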

[3] = Solubility test (artificial intestinal juice pH 6.8, 1% DMSO); type: physicochemical; settings: artificial intestinal juice pH 6.8 with 1% DMSO, fassgf or other biorelevant, kinetic from dmso stock, 25° C.
Procedure: The solubility of a compound was determined under a condition in which 1% DMSO was added. 10 mmol/L compound solution was prepared using DMSO, and then 6 μL of the compound solution was added to 594 μL of artificial intestinal juice in pH 6.8 (to 250 mL of 0.2 mol/L potassium dihydrogen phosphate reagent solution was added 118 mL of 0.2 mol/L NaOH reagent solution and water to provide a final volume of 1000 mL). After standing at 25° C. for 16 hours, the mixed solution was filtered with suction. The filtrate was diluted twice with methanol/water (1/1), and then a concentration in the filtration was measured with HPLC or LC/MS/MS by the absolute calibration method.

[4] = biological target: T2, PI3Kγ (Homo sapiens, UniProt P48736); assay: PI3Kγ inhibitory activity (PI3-kinase HTRF assay, inhibition ratio); type: biochemical; settings: 0.5 h, compound at 10 μmol/L; read-out: PI3Kg Inhibition Ratio % (10 μM)
Summary of the method: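 Compound at 10 μmol/L preincubated 10 min with PI3Kγ and PIP2 substrate, then reacted with ATP for 30 minutes at room temperature; the compound, substrate and ATP figures as printed (40 μmol/L each) are solution concentrations. HTRF 665/620 nm ratio read after 18 hours. Inhibition ratio calculated against no-compound (100%) and no-enzyme (0%) controls.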

[5] = biological target: T3, hERG channel (IKr) (Homo sapiens, UniProt Q12809); assay: hERG test (whole-cell patch-clamp, IKr in HEK293 cells); type: cell-based; settings: human, HEK293 cells expressing hERG channel, pH 7.4, inhibition of maximum tail current (IKr); for inhibition at 10 min, 1 µM: compound 1 μM
T3 construct: expressed in transfected cells; host or cells: HEK293
Summary of the method: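 hERG-expressing HEK293 cells, automated whole-cell patch clamp: hold −80 mV, +50 mV for 2 s, then −50 mV for 2 s to record IKr tail current. Compound in extracellular solution (pH 7.4) for 10 min at room temperature; inhibition of maximum tail current calculated versus pre-application and compared with 0.1% DMSO vehicle.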

[6] = Metabolic stability test (pooled human liver microsome); type: in vitro ADME; settings: percentage of test compound remained after 30 minutes, pooled human liver microsome 0.5 mg protein/mL, 1 mmol/L NADPH, 37° C., compound 0.5 μM
Summary of the method: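 Pooled human liver microsomes (0.5 mg protein/mL) incubated with compound and 1 mmol/L NADPH at 37° C. in pH 7.4 Tris buffer for 0 or 30 min. Parent quantified by LC/MS/MS after methanol/acetonitrile quench; value is % remaining at 30 min versus 0 min.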

[7] = tested on: AKT phosphorylation; assay: AKT phosphorylation inhibitory activity in MCP-1 stimulated THP-1 cells (sandwich ELISA); type: cell-based, Human; settings: Homo sapiens, compound at 1 μmol/L, MCP-1 stimulation, read-out: AKT phosphorylation inhibition ratio
Summary of the method: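 THP-1 cells (6.7×10^6/mL in HBSS) were preincubated with compound at 1 μmol/L for 5 min at 37 °C, then stimulated for 60 s with HBSS containing 1.2 μg/mL MCP-1 and lysed. Phospho-Akt Ser473/AKT1 sandwich ELISA was read at A450. % inhibition: no compound = 100% activity, no MCP-1 = 0%.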

[8] = biological target: PI3Kδ (Homo sapiens, UniProt O00329); assay: PI3Kδ inhibitory activity (Ki value); type: biochemical; settings: class symbols; read-out: PI3K δ Ki
Procedure: (§1) According to Example 2 above, after 80 μg/mL PI-3 kinase γ of the enzyme solution (80 μg/mL PI-3 kinase γ, 10 mmol/L MgCl2, 5 mmol/L DTT) was changed to 158 μg/mL PI-3 kinase δ, a method similar to the method for measuring PI3Kγ inhibitory activity was used to calculate an inhibition ratio, which was defined as the PI3Kδ inhibitory activity.
According to Example 4 above, a Km value for PI3Kδ was determined to calculate a Ki value.

[9] = biological target: PI3Kα (Homo sapiens, UniProt P42336); assay: PI3Kα inhibitory activity (Ki value); type: biochemical; settings: class symbols; read-out: PI3K α Ki
Procedure: as §1, with “0.8” for “158”, “α, an inhibition ratio was calculated by” for “δ,”, “activity, and then” for “activity was used to calculate an inhibition ratio, which was”, “PI3Kα” for “PI3Kδ”
The α inhibitory activity (Ki value) of a compound was evaluated according to the following procedure.
According to Example 4 above, a Km value for PI3Kα was determined to calculate a Ki value.

[10] = biological target: PI3Kβ (Homo sapiens, UniProt P42338); assay: PI3Kβ inhibitory activity (Ki value); type: biochemical; settings: class symbols; read-out: PI3K β Ki
Procedure: as §1, with “60” for “158”, “β,” for “δ,”, “PI3Kβ” for “PI3Kδ”
According to Example 4 above, a Km value for PI3Kβ was determined to calculate a Ki value.

[11] = biological target: T2, PI3Kγ; assay: PI3Kγ inhibitory activity (Ki value); type: biochemical
Summary of the method: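 Ki derived from IC50 measured at final compound levels of 50–0.05 μmol/L (HTRF read-out; 40 μmol/L ATP, 10 mmol/L MgCl2, 5 mmol/L DTT), IC50 by logistic or two-point linear fit. ATP Km from Lineweaver-Burk over 0.625–80 μmol/L ATP; Ki = IC50/(1+[ATP]/Km).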

T2 sequence (P48736 whole entry, species assumed): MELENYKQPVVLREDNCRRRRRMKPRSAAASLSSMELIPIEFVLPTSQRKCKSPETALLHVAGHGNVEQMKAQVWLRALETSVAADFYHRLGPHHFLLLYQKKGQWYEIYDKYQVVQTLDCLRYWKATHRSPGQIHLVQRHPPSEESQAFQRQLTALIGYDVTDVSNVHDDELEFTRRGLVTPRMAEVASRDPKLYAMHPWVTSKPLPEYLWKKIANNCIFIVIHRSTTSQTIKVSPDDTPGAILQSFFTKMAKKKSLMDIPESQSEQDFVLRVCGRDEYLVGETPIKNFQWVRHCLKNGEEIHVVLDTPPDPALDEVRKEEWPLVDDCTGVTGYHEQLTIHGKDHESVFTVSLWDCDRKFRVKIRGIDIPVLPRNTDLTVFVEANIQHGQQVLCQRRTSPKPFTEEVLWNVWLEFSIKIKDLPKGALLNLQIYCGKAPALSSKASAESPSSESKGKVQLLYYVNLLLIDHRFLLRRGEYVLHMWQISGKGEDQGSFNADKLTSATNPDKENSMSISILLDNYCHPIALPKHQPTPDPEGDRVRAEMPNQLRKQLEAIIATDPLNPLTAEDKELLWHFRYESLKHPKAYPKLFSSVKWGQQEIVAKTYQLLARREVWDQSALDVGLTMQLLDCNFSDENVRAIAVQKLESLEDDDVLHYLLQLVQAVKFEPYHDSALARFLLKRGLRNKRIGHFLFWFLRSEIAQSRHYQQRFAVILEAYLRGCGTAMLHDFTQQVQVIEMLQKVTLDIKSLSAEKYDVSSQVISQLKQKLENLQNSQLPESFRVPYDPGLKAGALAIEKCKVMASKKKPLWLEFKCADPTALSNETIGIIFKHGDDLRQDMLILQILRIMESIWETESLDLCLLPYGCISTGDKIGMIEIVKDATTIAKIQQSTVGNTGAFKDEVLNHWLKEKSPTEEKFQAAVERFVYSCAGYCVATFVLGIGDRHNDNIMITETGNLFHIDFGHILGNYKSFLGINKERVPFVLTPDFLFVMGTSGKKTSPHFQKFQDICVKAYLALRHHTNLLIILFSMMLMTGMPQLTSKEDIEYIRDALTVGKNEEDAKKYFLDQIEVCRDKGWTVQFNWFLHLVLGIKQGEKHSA
T3 sequence (Q12809 whole entry): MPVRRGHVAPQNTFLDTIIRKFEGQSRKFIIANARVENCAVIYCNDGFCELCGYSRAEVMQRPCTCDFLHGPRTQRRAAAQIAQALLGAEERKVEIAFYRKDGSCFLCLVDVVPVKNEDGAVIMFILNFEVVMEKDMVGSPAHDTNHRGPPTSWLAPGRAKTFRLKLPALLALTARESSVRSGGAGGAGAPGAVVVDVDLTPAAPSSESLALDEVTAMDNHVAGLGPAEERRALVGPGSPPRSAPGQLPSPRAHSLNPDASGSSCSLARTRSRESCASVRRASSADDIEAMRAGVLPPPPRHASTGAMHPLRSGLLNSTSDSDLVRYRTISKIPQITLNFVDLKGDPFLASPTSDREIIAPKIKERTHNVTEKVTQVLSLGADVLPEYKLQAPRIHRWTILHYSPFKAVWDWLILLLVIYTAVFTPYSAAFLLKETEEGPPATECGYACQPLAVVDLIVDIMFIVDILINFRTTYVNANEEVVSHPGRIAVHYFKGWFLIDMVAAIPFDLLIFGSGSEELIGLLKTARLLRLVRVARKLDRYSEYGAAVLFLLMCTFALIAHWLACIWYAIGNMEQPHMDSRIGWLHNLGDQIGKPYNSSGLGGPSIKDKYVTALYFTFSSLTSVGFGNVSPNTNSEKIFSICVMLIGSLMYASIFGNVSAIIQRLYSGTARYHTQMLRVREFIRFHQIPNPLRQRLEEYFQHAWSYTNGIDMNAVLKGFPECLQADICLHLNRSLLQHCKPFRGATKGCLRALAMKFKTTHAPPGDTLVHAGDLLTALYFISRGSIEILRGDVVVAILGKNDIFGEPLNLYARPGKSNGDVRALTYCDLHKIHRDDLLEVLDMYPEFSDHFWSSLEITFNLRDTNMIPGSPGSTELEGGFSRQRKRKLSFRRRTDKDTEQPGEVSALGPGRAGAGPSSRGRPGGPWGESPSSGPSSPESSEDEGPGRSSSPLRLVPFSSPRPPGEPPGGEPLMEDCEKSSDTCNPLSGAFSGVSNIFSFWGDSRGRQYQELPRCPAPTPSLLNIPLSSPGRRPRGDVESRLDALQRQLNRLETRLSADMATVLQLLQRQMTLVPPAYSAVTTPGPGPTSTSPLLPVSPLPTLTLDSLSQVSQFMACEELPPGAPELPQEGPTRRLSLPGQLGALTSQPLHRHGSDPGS
T1 sequence (P08684 whole entry): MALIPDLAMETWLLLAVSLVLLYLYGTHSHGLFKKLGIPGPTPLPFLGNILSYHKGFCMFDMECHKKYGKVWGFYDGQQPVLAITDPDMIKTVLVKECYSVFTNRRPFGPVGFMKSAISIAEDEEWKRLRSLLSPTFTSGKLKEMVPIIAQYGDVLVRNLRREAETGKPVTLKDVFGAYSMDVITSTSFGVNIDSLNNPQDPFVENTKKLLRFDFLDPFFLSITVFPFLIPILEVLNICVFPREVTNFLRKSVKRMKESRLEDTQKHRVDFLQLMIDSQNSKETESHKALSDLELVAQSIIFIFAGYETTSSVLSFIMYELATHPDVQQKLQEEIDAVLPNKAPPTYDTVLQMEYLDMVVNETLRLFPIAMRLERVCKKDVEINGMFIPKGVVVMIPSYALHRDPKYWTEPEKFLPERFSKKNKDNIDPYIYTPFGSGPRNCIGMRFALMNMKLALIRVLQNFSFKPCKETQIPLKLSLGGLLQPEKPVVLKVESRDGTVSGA
Sequence of PI3Kδ (O00329 whole entry, species assumed): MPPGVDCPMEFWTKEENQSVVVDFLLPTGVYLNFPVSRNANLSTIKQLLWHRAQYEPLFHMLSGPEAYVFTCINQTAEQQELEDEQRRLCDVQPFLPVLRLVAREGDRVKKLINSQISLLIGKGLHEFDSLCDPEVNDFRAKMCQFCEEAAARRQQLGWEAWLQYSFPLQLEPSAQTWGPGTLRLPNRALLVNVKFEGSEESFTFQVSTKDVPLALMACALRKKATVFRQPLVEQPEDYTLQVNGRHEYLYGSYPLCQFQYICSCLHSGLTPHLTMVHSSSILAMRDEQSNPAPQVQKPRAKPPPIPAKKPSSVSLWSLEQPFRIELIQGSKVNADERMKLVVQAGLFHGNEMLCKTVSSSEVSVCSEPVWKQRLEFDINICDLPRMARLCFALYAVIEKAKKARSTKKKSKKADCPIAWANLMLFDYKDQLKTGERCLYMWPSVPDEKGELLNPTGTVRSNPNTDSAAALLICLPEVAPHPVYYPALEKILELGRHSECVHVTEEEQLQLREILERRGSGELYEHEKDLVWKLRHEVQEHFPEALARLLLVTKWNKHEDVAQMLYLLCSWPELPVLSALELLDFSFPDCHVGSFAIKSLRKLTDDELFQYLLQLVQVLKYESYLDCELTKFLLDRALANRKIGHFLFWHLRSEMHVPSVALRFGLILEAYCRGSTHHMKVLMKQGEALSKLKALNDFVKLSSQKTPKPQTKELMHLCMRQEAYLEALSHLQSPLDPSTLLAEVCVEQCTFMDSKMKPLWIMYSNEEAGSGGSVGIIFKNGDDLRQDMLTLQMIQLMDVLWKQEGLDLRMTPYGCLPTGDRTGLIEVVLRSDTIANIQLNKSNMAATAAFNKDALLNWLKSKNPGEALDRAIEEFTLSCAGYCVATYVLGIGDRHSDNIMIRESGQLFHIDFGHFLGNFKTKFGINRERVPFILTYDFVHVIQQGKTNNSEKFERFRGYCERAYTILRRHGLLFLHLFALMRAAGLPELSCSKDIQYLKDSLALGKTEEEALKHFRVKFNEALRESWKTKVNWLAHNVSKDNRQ
Sequence of PI3Kδ (P27986 whole entry partner, species assumed): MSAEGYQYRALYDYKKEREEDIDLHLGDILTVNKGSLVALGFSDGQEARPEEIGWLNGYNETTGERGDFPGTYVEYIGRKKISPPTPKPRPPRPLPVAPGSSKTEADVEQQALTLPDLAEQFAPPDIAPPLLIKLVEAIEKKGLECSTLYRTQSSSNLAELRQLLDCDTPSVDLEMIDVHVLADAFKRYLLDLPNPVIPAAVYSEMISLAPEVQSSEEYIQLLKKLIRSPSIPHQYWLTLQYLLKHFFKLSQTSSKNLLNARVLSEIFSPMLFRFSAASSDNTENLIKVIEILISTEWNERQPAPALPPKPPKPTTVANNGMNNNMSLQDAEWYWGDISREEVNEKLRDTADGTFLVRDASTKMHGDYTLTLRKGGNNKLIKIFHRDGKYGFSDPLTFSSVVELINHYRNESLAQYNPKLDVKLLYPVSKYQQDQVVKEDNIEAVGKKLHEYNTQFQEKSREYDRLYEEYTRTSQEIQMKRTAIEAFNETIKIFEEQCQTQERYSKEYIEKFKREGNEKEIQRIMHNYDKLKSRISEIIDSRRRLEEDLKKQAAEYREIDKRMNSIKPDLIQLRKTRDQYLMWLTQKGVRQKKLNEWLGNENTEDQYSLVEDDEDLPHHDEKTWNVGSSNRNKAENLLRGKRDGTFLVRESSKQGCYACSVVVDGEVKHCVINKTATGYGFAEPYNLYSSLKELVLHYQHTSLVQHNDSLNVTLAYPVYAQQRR

SMILES	IC50 at 15 min [1] [µM]	solubility at 16 h [3] [µM]	inhibition at 10 µM [4] [%]	hLMS_ox(at 0.5 μM) % [6] [%]	other results
COc1cc(N2CCc3nc(NC(=O)Nc4ccccc4C(=O)N4CCOCC4)sc3C2)nc(OC)n1 [Compound I-10]	> 20	> 50	68	–	MBI [2]: (−) (When 3 μmol/L or less, the compound is shown as (−))
COc1cc(N2CCc3nc(NC(=O)Nc4ccccc4C(=O)NC(C)(C)C(=O)O)sc3C2)nc(OC)n1 [Compound I-19]	> 20	> 50	≥ 95	87.2	inhibition at 10 min, 10 µM ([5]; compound 10 μM): 9.5%
COc1cc(N2CCc3nc(NC(=O)NC4CCCCC4C(=O)NC(C)C)sc3C2)nc(OC)n1 (stereo not drawn) [Compound I-31]	≥ 10	32.3 (≈ 16.3 µg/mL)	90	–	–
COc1cc(N2CCc3nc(NC(=O)Nc4ccccc4CNC(C)C)sc3C2)nc(OC)n1 [Compound I-84]	> 20	> 50	–	–	–
CCNC(=O)c1ccncc1NC(=O)Nc1nc2c(s1)CN(c1cnc(OC)c(OC)c1)CC2 [Compound I-103]	–	30.1 (≈ 14.6 µg/mL)	≥ 95	85.8	inhibition at 10 min, 1 µM [5]: 3.6%
COc1ccc(N2CCc3nc(NC(=O)Nc4ccccc4C(=O)NC(C)CO)sc3C2)cc1OC (stereo not drawn) [Compound I-107]	≥ 10	42.6 (≈ 21.8 µg/mL)	–	98	inhibition at 10 min, 1 µM [5]: 5.4%
CC(CO)NC(=O)c1ccccc1NC(=O)Nc1nc2c(s1)CN(c1ccc(F)cn1)CC2 (stereo not drawn) [Compound I-120]	–	17.5 (≈ 8.23 µg/mL)	≥ 95	92.3	–
COc1cc(N2CCc3nc(NC(=O)Nc4ccccc4C(=O)NC(C)CN(C)C)sc3C2)nc(OC)n1 (stereo not drawn) [Compound I-137]	–	> 50	≥ 95	94.5	inhibition at 1 µM [7]: 85%
CCOC(=O)[C@H]1CCC[C@H]1NC(=O)Nc1nc2c(s1)CN(c1cc(OC)nc(OC)n1)CC2 [Compound I-149]	> 20	36.1 (≈ 17.2 µg/mL)	–	–	–
COc1cc(N2CCc3nc(NC(=O)Nc4ccccc4C(=O)NCC(C)(C)O)sc3C2)nc(OC)n1 [Compound I-158]	–	24.9 (≈ 13.1 µg/mL)	86	99	inhibition at 10 min, 1 µM [5]: 9.2%; inhibition at 1 µM [7]: ≥ 95%
CC(C)NC(=O)c1ccccc1NC(=O)Nc1nc2c(s1)CN(c1cc[nH]c(=O)c1)CC2 [Compound I-178]	–	10 (≈ 4.53 µg/mL)	≥ 95	97.9	–
COc1cc(N2CCc3nc(NC(=O)Nc4ccccc4C(=O)NN(C)C)sc3C2)nc(OC)n1 [Compound I-182]	–	19.6 (≈ 9.77 µg/mL)	≥ 95	88.1	inhibition at 10 min, 1 µM [5]: 4.9%; inhibition at 1 µM [7]: ≥ 95%
C[C@@H](CO)NC(=O)c1ccccc1NC(=O)Nc1nc2c(s1)CN(c1cc[nH]c(=O)c1)CC2 [Compound I-183]	–	28.1 (≈ 13.2 µg/mL)	91	109	Ki [8]: > 3 µM; Ki [9]: > 3 µM; Ki [10]: > 3 µM; Ki ([11]; class symbols, read-out: PI3K γ Ki): ≤ 0.3 µM; Ki ([11]; read-out: PI3Kγ Ki value): 0.09 µM
C[C@@H](CO)NC(=O)c1ccccc1NC(=O)Nc1nc2c(s1)CN(c1cncc(C#N)c1)CC2 [Compound I-189]	–	10.3 (≈ 4.92 µg/mL)	92	–	MBI [2]: (−) (When 3 μmol/L or less, the compound is shown as (−))
COc1cc(N2CCc3nc(NC(=O)Nc4ccccc4C(=O)NC4CCNCC4)sc3C2)nc(OC)n1 [Compound I-202]	≥ 10	> 50	≥ 95	104	–
CC(C)NC(=O)c1ccccc1NC(=O)Nc1nc2c(s1)CN(c1cnc(N)c(C(F)(F)F)c1)CC2 [Compound I-212]	≥ 10	14 (≈ 7.27 µg/mL)	≥ 95	–	inhibition at 1 µM [7]: ≥ 95%
